Results published in BindingDB's records for PubMed 34029774 (Dpsr University, 2021).

Assays:
[1] = biological target: Prostaglandin G/H synthase 2 (Ovis aries); test: Inhibition of ovine COX-2 colorimetric enzyme immunoassay
[2] = biological target: Prostaglandin G/H synthase 2 (Homo sapiens) (UniProt P35354); test: Binding affinity to human recombinant COX-2 assessed as inhibition constant preincubated for 5 mins followed by arachidonic acid addition measured every 30 sec for 10 mins by fluorescence based assay
Chain of Prostaglandin G/H synthase 2 (Homo sapiens) (P35354 whole entry, looked up): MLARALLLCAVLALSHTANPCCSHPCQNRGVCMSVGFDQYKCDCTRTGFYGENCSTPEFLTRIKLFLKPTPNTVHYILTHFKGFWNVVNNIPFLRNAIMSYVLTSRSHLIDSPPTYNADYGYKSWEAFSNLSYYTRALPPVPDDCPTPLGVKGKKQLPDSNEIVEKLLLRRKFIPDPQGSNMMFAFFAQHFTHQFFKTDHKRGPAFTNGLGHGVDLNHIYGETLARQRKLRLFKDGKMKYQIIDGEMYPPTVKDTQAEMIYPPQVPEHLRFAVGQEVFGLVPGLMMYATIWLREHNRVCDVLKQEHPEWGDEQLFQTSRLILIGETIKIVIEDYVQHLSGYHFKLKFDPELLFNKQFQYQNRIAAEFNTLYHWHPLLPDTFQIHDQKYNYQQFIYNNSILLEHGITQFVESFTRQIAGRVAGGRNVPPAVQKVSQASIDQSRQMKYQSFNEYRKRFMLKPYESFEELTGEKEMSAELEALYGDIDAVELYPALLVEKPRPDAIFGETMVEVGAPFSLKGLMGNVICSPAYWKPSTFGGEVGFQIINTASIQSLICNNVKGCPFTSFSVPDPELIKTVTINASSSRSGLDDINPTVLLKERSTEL

[3] = biological target: Prostaglandin G/H synthase 2 (Ovis aries); test: Inhibition of ovine COX-2 using arachidonic acid as substrate measured after 2 mins by colorimetric enzyme immune assay
[4] = biological target: Prostaglandin G/H synthase 2 (Ovis aries); test: Inhibition of ovine COX-2 by colorimetric inhibitor screening assay

| Structure (SMILES) | IC50 [1] [nM] | IC50 [3] [nM] | other results |
| --- | --- | --- | --- |
| COc1ccc2cc(C(C)C(=O)O/N=C(\N)c3ccc(OC)c(OC)c3)ccc2c1 (stereo unspecified) | 6.4 | – | – |
| COc1ccc2cc(C(C)C(=O)O/N=C(\N)c3ccc(Cl)cc3)ccc2c1 (stereo unspecified) | 7.2 | – | – |
| C=C(/C=C\C)/C(CSc1nnc(-c2cc(-c3ccc(OC)cc3)nc3ccccc23)n1-c1ccccc1)=N\O | – | – | Ki [2]: 94600 nM |
| C/C(=N/Nc1ccc(C(=O)O)cc1)c1cccc(N2C(=O)c3ccccc3C2=O)c1 | – | 110 | – |
| COc1ccc(/C=C/C(=O)c2cccc(N3C(=O)c4ccccc4C3=O)c2)cc1OC | – | 170 | – |
| CC1=C(CC(=O)Sc2ccccc2)c2cc(F)ccc2/C1=C\c1ccc([S+](C)[O-])cc1 (stereo unspecified) | – | – | IC50 [4]: 1200 nM |
